{"source": "patent US20240239792A1", "about": "“MODULATORS OF BCL-2 OR BCL-2/BCL-XL AND USES THEREOF” (APPICINE THERAPEUTICS (HK) LIMITED, priority 2021, published 2024)", "key": {"BCL-2": {"target": "T1, BCL-2 (Homo sapiens, UniProt P10415)", "T1 construct": "purchased Cisbio 63ADK000CB01PEG", "T1 sequence (P10415 whole entry)": "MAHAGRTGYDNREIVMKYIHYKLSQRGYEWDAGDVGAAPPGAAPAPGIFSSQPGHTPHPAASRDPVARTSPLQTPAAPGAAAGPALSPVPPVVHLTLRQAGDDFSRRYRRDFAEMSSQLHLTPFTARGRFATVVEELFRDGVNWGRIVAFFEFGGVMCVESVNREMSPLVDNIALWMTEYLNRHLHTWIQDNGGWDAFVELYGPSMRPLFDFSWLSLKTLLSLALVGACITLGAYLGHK", "experiment": "HTRF BCL-2/BAK assay (Cisbio)", "type": "binding", "details": "recombinant human Tag1-BCL-2 2 nM, Tag2-BAK 10 nM", "procedure": "Then the pre-mixed anti-Tag1-Eu^3+ and anti-tag2-XL665 were added to the plate and further incubated at room temperature for another 2 hours. The signals ([…]) were read on Envision 2104 instrument. The IC50 for each compound was derived from fitting the signal of 665/615 nM to the increasing compound concentration.\nUsing the above assays, the following compounds were tested."}, "DOHH2 cells": {"system": "DOHH2 cells", "experiment": "CellTiter-Glo cell proliferation assay, DOHH2 cells", "type": "cell-based", "details": "Homo sapiens, DOHH-2, 72 hours", "procedure": "The CellTiter-Glo® Luminescent Cell Viability Assay (Promega, G7573) was used to study the cellular potency of disclosed compounds herein. The cells were harvested during the logarithmic growth period and counted with hemocytometer. The DOHH2 cells were seeded at 1.6*10^4 in 90 ul DMEM medium supplemented with 10% fetal bovine serum (FBS) (as RS4;11 cells were seeded at 4000 in 90 ul RPMI-1640 medium with 10% FBS) per well in 96-well plates and treated with 10 ul of a serial dilution of compounds disclosed herein (maximum concentration and dilution ratio determined by the results of pre-experiment may vary) for 72 hours in a 5% CO2 incubator at 37° C. Cell viability was assessed according to the manufacturer's recommendations. After the plates return to the room temperature, 100 ul of CellTiter-Glo® reagent was added to 100 ul of cell culture. The mixture was agitated on an orbital shaker for 2 minutes or placed it at room temperature for 10 minutes to allow cell lysis and stabilization of luminescent signals. Luminescent signals were recorded using Envision 2104 instrument. And GI50 values were then calculated."}}}
{"smiles": "O=C(NS(=O)(=O)c1cccc([N+](=O)[O-])c1)c1ccc(N2CCN(C3CCCc4ccccc43)CC2)cc1Oc1cnc2[nH]ccc2c1", "note": "(stereo not drawn) [Compound 1, 2-((1H-pyrrolo[2,3-b]pyridin-5-yl)oxy)-N-((3-nitrophenyl)sulfonyl)-4-(4-(1,2,3,4-tetrahydronaphthalen-1-yl)piperazin-1-yl)benzamide]", "values": [{"measurement": "IC50", "setting": "BCL-2", "result": "200 to 2000", "unit": "nM"}]}
{"smiles": "O=C(NS(=O)(=O)c1ccc(NCC2CCOCC2)c([N+](=O)[O-])c1)c1ccc(N2CCN(C3CCCc4ccccc43)CC2)cc1Oc1cnc2[nH]ccc2c1", "note": "(stereo not drawn) [Compound 2, 2-((1H-pyrrolo[2,3-b]pyridin-5-yl)oxy)-N-((3-nitro-4-(((tetrahydro-2H-pyran-4-yl)methyl)amino)phenyl)sulfonyl)-4-(4-(1,2,3,4-tetrahydronaphthalen-1-yl)piperazin-1-yl)benzamide]", "values": [{"measurement": "IC50", "setting": "BCL-2", "result": "20 to 200", "unit": "nM"}, {"measurement": "GI50", "setting": "DOHH2 cells", "result": "> 5000", "unit": "nM"}]}
{"smiles": "O=C(NS(=O)(=O)c1cccc([N+](=O)[O-])c1)c1ccc(N2CCN(C3CCc4ccccc43)CC2)cc1Oc1cnc2[nH]ccc2c1", "note": "(stereo not drawn) [Compound 3, 2-((1H-pyrrolo[2,3-b]pyridin-5-yl)oxy)-4-(4-(2,3-dihydro-1H-inden-1-yl)piperazin-1-yl)-N-((3-nitrophenyl)sulfonyl)benzamide]", "values": [{"measurement": "IC50", "setting": "BCL-2", "result": "200 to 2000", "unit": "nM"}]}
{"smiles": "O=C(NS(=O)(=O)c1ccc(NCC2CCOCC2)c([N+](=O)[O-])c1)c1ccc(N2CCN(C3CCc4ccccc43)CC2)cc1Oc1cnc2[nH]ccc2c1", "note": "(stereo not drawn) [Compound 4, 2-((1H-pyrrolo[2,3-b]pyridin-5-yl)oxy)-4-(4-(2,3-dihydro-1H-inden-1-yl)piperazin-1-yl)-N-((3-nitro-4-(((tetrahydro-2H-pyran-4-yl)methyl)amino)phenyl)sulfonyl)benzamide]", "values": [{"measurement": "IC50", "setting": "BCL-2", "result": "20 to 200", "unit": "nM"}, {"measurement": "GI50", "setting": "DOHH2 cells", "result": "500 to 5000", "unit": "nM"}]}
{"smiles": "O=C(NS(=O)(=O)c1ccc(NCC2CCOCC2)c([N+](=O)[O-])c1)c1ccc(N2CCN(C3CCCCc4ccccc43)CC2)cc1Oc1cnc2[nH]ccc2c1", "note": "(stereo not drawn) [Compound 6, 2-((1H-pyrrolo[2,3-b]pyridin-5-yl)oxy)-N-((3-nitro-4-(((tetrahydro-2H-pyran-4-yl)methyl)amino)phenyl)sulfonyl)-4-(4-(6,7,8,9-tetrahydro-5H-benzo[7]annulen-5-yl)piperazin-1-yl)benzamide]", "values": [{"measurement": "IC50", "setting": "BCL-2", "result": "< 20", "unit": "nM"}, {"measurement": "GI50", "setting": "DOHH2 cells", "result": "50 to 500", "unit": "nM"}]}
{"smiles": "O=C(NS(=O)(=O)c1cccc([N+](=O)[O-])c1)c1ccc(N2CCN(C3CCCc4cccc(-c5ccccc5)c43)CC2)cc1Oc1cnc2[nH]ccc2c1", "note": "(stereo not drawn) [Compound 8, 2-((1H-pyrrolo[2,3-b]pyridin-5-yl)oxy)-N-((3-nitrophenyl)sulfonyl)-4-(4-(8-phenyl-1,2,3,4-tetrahydronaphthalen-1-yl)piperazin-1-yl)benzamide]", "values": [{"measurement": "IC50", "setting": "BCL-2", "result": "200 to 2000", "unit": "nM"}]}
{"smiles": "O=C(NS(=O)(=O)c1cccc([N+](=O)[O-])c1)c1ccc(N2CCN(C3CCOc4ccccc43)CC2)cc1Oc1cnc2[nH]ccc2c1", "note": "(stereo not drawn) [Compound 9, 2-((1H-pyrrolo[2,3-b]pyridin-5-yl)oxy)-4-(4-(chroman-4-yl)piperazin-1-yl)-N-((3-nitrophenyl)sulfonyl)benzamide]", "values": [{"measurement": "IC50", "setting": "BCL-2", "result": "200 to 2000", "unit": "nM"}]}
{"smiles": "O=C(NS(=O)(=O)c1cccc([N+](=O)[O-])c1)c1ccc(N2CCN(C3CCCc4cccc(-c5ccsc5)c43)CC2)cc1Oc1cnc2[nH]ccc2c1", "note": "(stereo not drawn) [Compound 11, 2-((1H-pyrrolo[2,3-b]pyridin-5-yl)oxy)-N-((3-nitrophenyl)sulfonyl)-4-(4-(8-(thiophen-3-yl)-1,2,3,4-tetrahydronaphthalen-1-yl)piperazin-1-yl)benzamide]", "values": [{"measurement": "IC50", "setting": "BCL-2", "result": "200 to 2000", "unit": "nM"}]}
{"smiles": "O=C(NS(=O)(=O)c1cccc([N+](=O)[O-])c1)c1ccc(N2CCN(C3CCCc4cccc(-c5cccc(Cl)c5)c43)CC2)cc1Oc1cnc2[nH]ccc2c1", "note": "(stereo not drawn) [Compound 14, 2-((1H-pyrrolo[2,3-b]pyridin-5-yl)oxy)-4-(4-(8-(3-chlorophenyl)-1,2,3,4-tetrahydronaphthalen-1-yl)piperazin-1-yl)-N-((3-nitrophenyl)sulfonyl)benzamide]", "values": [{"measurement": "IC50", "setting": "BCL-2", "result": "200 to 2000", "unit": "nM"}]}
{"smiles": "O=C(NS(=O)(=O)c1cccc([N+](=O)[O-])c1)c1ccc(N2CCN(C3CCCc4cccc(-c5cccs5)c43)CC2)cc1Oc1cnc2[nH]ccc2c1", "note": "(stereo not drawn) [Compound 15, 2-((1H-pyrrolo[2,3-b]pyridin-5-yl)oxy)-N-((3-nitrophenyl)sulfonyl)-4-(4-(8-(thiophen-2-yl)-1,2,3,4-tetrahydronaphthalen-1-yl)piperazin-1-yl)benzamide]", "values": [{"measurement": "IC50", "setting": "BCL-2", "result": "200 to 2000", "unit": "nM"}]}
{"smiles": "O=C(NS(=O)(=O)c1ccc(NCC2CCOCC2)c([N+](=O)[O-])c1)c1ccc(N2CCN(C3CCOc4ccccc43)CC2)cc1Oc1cnc2[nH]ccc2c1", "note": "(stereo not drawn) [Compound 17, 2-((1H-pyrrolo[2,3-b]pyridin-5-yl)oxy)-4-(4-(chroman-4-yl)piperazin-1-yl)-N-((3-nitro-4-(((tetrahydro-2H-pyran-4-yl)methyl)amino)phenyl)sulfonyl)benzamide]", "values": [{"measurement": "IC50", "setting": "BCL-2", "result": "20 to 200", "unit": "nM"}, {"measurement": "GI50", "setting": "DOHH2 cells", "result": "500 to 5000", "unit": "nM"}]}
{"smiles": "O=C(NS(=O)(=O)c1ccc(NCC2CCOCC2)c([N+](=O)[O-])c1)c1ccc(N2CCN(C3CCCCc4ccc(-c5ccccc5)cc43)CC2)cc1Oc1cnc2[nH]ccc2c1", "note": "(stereo not drawn) [Compound 22, 2-((1H-pyrrolo[2,3-b]pyridin-5-yl)oxy)-N-((3-nitro-4-(((tetrahydro-2H-pyran-4-yl)methyl)amino)phenyl)sulfonyl)-4-(4-(3-phenyl-6,7,8,9-tetrahydro-5H-benzo[7]annulen-5-yl)piperazin-1-yl)benzamide]", "values": [{"measurement": "IC50", "setting": "BCL-2", "result": "20 to 200", "unit": "nM"}, {"measurement": "GI50", "setting": "DOHH2 cells", "result": "500 to 5000", "unit": "nM"}]}
{"smiles": "O=C(NS(=O)(=O)c1ccc(NCC2CCOCC2)c([N+](=O)[O-])c1)c1ccc(N2CCN(C3CCCCc4c(Cl)cccc43)CC2)cc1Oc1cnc2[nH]ccc2c1", "note": "(stereo not drawn) [Compound 27, 2-((1H-pyrrolo[2,3-b]pyridin-5-yl)oxy)-4-(4-(1-chloro-6,7,8,9-tetrahydro-5H-benzo[7]annulen-5-yl)piperazin-1-yl)-N-((3-nitro-4-(((tetrahydro-2H-pyran-4-yl)methyl)amino)phenyl)sulfonyl)benzamide]", "values": [{"measurement": "IC50", "setting": "BCL-2", "result": "< 20", "unit": "nM"}, {"measurement": "GI50", "setting": "DOHH2 cells", "result": "< 50", "unit": "nM"}]}
{"smiles": "O=C(NS(=O)(=O)c1ccc(NCC2CCOCC2)c([N+](=O)[O-])c1)c1ccc(N2CCN(C3CCCOc4ccccc43)CC2)cc1Oc1cnc2[nH]ccc2c1", "note": "(stereo not drawn) [Compound 36, 2-((1H-pyrrolo[2,3-b]pyridin-5-yl)oxy)-N-((3-nitro-4-(((tetrahydro-2H-pyran-4-yl)methyl)amino)phenyl)sulfonyl)-4-(4-(2,3,4,5-tetrahydrobenzo[b]oxepin-5-yl)piperazin-1-yl)benzamide]", "values": [{"measurement": "IC50", "setting": "BCL-2", "result": "< 20", "unit": "nM"}, {"measurement": "GI50", "setting": "DOHH2 cells", "result": "50 to 500", "unit": "nM"}]}
{"smiles": "O=C(NS(=O)(=O)c1ccc(NCC2CCOCC2)c([N+](=O)[O-])c1)c1ccc(N2CCN(C3CCCCc4c(C5CCCC5)cccc43)CC2)cc1Oc1cnc2[nH]ccc2c1", "note": "(stereo not drawn) [Compound 55, 2-((1H-pyrrolo[2,3-b]pyridin-5-yl)oxy)-4-(4-(1-cyclopentyl-6,7,8,9-tetrahydro-5H-benzo[7]annulen-5-yl)piperazin-1-yl)-N-((3-nitro-4-(((tetrahydro-2H-pyran-4-yl)methyl)amino)phenyl)sulfonyl)benzamide]", "values": [{"measurement": "IC50", "setting": "BCL-2", "result": "20 to 200", "unit": "nM"}, {"measurement": "GI50", "setting": "DOHH2 cells", "result": "> 5000", "unit": "nM"}]}
{"smiles": "CC1(C)CCC2(CC1)CC(CNc1ccc(S(=O)(=O)NC(=O)c3ccc(N4CCN([C@@H]5CCCCc6c(Cl)cccc65)CC4)cc3Oc3cnc4[nH]ccc4c3)cc1[N+](=O)[O-])C2", "note": "[Compound 136, (R)-2-((1H-pyrrolo[2,3-b]pyridin-5-yl)oxy)-4-(4-(1-chloro-6,7,8,9-tetrahydro-5H-benzo[7]annulen-5-yl)piperazin-1-y1)-N-((4-(((7,7-dimethylspiro[3.5]nonan-2-yl)methyl)amino)-3-nitrophenyl)sulfonyl)benzamide]", "values": [{"measurement": "GI50", "setting": "DOHH2 cells", "result": "> 5000", "unit": "nM"}]}
